# Results: publication PMC4336331, “Novel Receptor-Derived Cyclopeptides to Treat Heart Failure Caused by Anti-β1-Adrenoceptor Antibodies in a Human-Analogous Rat Model” (PLoS ONE, 2015)
# Where two headings read alike, the source gives them in different places.
# Key:
# [1] = tested on: anti-β1EC2-induced heart failure (β1EC2/GST-FP-immunised rats); experiment: Relative organ wet weights and body weight, therapy-study; conditions: immunised anti-β1EC2-positive rats, from 8.5 months after 1st immunisation peptides 1.0 mg/kg i.v. every 4 weeks, bisoprolol 15 mg/kg/day orally, over 12 months, month 20, mean ±SEM
# Procedure: (§1) In brief, n = 76 two months old Lewis/CrlBR rats were either s.c. immunised with 50 μg β1EC2/GST-FP, or n = 38 rats were control-injected with 0.9% NaCl (t = 0). To maintain high anti-β1EC2-titers, all immunised rats were boosted with β1EC2/GST-FP (or 0.9% NaCl) every month over 20 months as previously described. Application of the different linear or cyclic β1-AR peptides (corresponding to the primary AA-sequence of either the first (β1EC1) or the 2nd extra-cellular β1-AR loop (β1EC2)) or the β1-receptor blocker bisoprolol was initiated either 6 weeks after the 1st immunisation (i.e. 15 days after the 1st boost, prevention-study), or 8.5 months after the 1st immunisation (therapy-study).
# (§2) After the hearts all other relevant inner organs (e.g., lung, liver, spleen, kidneys, brain, and eyes) were removed, rinsed with ice-cold PBS, weighed, sectioned, and fixed for further histologic analysis.
# [2] = tested on: anti-β1EC2-induced heart failure (β1EC2/GST-FP-immunised rats); experiment: Left heart catheterisation (haemodynamics), therapy-study; format: in vivo, Lewis/CrlBR rats; conditions: LV catheterisation month 20, mean ±SEM
# Procedure: as §1
# [3] = tested on: anti-β1EC2-induced heart failure (β1EC2/GST-FP-immunised rats); conditions: therapy-study, end of study, mean ±SEM
# Procedure: as §1
# From paraffin-embedded heart preparations cavity- and wall-dimensions were determined by computer-aided analysis of H&E-stained mid-ventricular 2μm-sections as previously described. H&E-stained paraffin-sections also served to quantify damaged and fibrotic cardiac areas (scars). For detection of mast cells, deparaffinised cardiac sections were stained with acidified (pH<2.5) toluidine blue 0.1% (Sigma). The number of toluidine-positive cells was normalized to square millimeter of cardiac tissue. TUNEL-positive cells were quantified in 2μm mid-ventricular paraffin-sections using a TMR Red in Situ Death Detection Kit (Roche, Basel, Switzerland). Only the total number of TUNEL-postive cells/section was determined without further differentiation of the specific apoptotic cell type (e.g., fibroblasts, endothelial cells, cardiomyocytes).
# anti-β1EC2-antibodies = experiment: Free anti-β1EC2-titers by ELISA, therapy-study; format: in vivo, Lewis/CrlBR rats; conditions: peptides 1.0 mg/kg/month i.v., bisoprolol 15 mg/kg/day orally (S1 Fig., Fig. 2F)
# Procedure: as §1
# (TIF) Click here for additional data file.
# [4] = tested on: brain, liver, heart, kidney, eye, and spleen; experiment: Histologic analysis of organs for treatment-related pathologies; conditions: rat, in vivo
# Description: as §2
# Supplementary file pone.0117589.s003.tif: S3 Fig Histologic analysis of various organs (therapy-study, mono-treatment). Representative H&E-stained 2μm cross-sections from various organs analyzed for treatment-related pathologies. Panels (from top to bottom) show organs analyzed from immunised anti-β1EC2-positive untreated, β1EC2-CP-treated, or bisoprolol-treated rats. […] (TIF) Click here for additional data file.
# cardiac β1-ARs = experiment: Radioligand binding of cardiac membranes (125I-CYP); format: in vivo, Lewis/CrlBR rats; conditions: 125I-cyanopindolol binding to cardiac membranes, CGP20712A competition (Fig. 4A and B)
# Procedure: Membranes from apical cardiac tissues from rats of each study-group were prepared as previously described. To determine total β-AR density (Bmax), 35μg membrane protein were incubated (1.5 h, 25°C) in binding buffer with 200pM of the non-selective β-AR antagonist ^125I-cyanopindolol (^125I-CYP; Perkin Elmer Life and Analytical Sciences, Billerica, MA). Non-specific binding was determined with 5μM unlabeled L-propranolol. The proportion of β1- and β2-AR subtypes was estimated from biphasic competition-curves with 10^-10 to 10^-2 M of the unlabeled β1-selective antagonist CGP20712A (Sigma). The reaction was stopped by rapid filtration (Whatman GF/C filters) and washing with ice-cold buffer. Filter-bound radioactivity was measured by γ-counting. Estimates of maximal binding (Bmax) and the proportion of β1- and β2-AR-subtypes were calculated with GraphPad Prism 5.00 (San Diego, CA).
# Fig 4 Cardiac adrenergic system and molecular markers. […] Columns ± error bars represent the level of expression of the indicated markers ±SEM in cardiac tissues from the indicated treatment-groups compared to values from 0.9% NaCl-injected rats (controls, set at 100%), as determined by qRT-PCR normalised to GAPDH (one way ANOVA and Dunnett`s post-hoc test; *p<0.05; **p<0.001).
# [5] = tested on: anti-β1EC2-induced heart failure (β1EC2/GST-FP-immunised rats); experiment: Echocardiography and catheterisation, cardiomyopathic phenotype, therapy-study; format: in vivo, Lewis/CrlBR rats; conditions: echocardiography and catheterisation (Fig. 2G, H; S2 Fig.)
# Procedure: as §1
# In brief, the rats were lightly anaestetised (30 mg/kg ketamine-HCl and 5 mg/kg xylazine i.p.), shaved (chest), and placed supine on a special table. M-mode tracings were recorded at baseline (before immunisation), and subsequently every four months in the parasternal long and short axis views according to the guidelines of the American Society for Echocardiography. Pulsed-wave Doppler spectra were recorded from the apical five-chamber view and the velocity-time integral (VTI) of the transaortic flow served to calculate cardiac output (CO [ml/min] = Aortic VTI x (π [LV-outflow tract diameter/2]^2) x bpm).
# [6] = immunised anti-β1EC2-positive rats, from 8.5 months after 1st immunisation peptides 1.0 mg/kg i.v. every 4 weeks, bisoprolol 15 mg/kg/day orally, over 12 months
# [7] = non-immunised 0.9% NaCl-injected rats, EC2-CP 1.0 mg/kg i.v. every 4 weeks or bisoprolol 15 mg/kg/day orally over 12 months
compound,measurement,setting,value
"CC(C)NCC(O)COc1ccc(COCCOC(C)C)cc1 (stereo not shown) [bisoprolol, reference compound]","Heart, relative (wet) weight",[1],2.93 ± 0.11 mg/g
same,"Liver, relative (wet) weight",[1],21.61 ± 1.47 mg/g
same,"Lung, relative (wet) weight",[1],2.88 ± 0.10 mg/g
same,+dP/dt (contractilility),[2]; [6],5697 ± 231 mmHg/s
same,-dP/dt (relaxation),[2]; [6],4238 ± 117 mmHg/s
same,HF (heart frequence),[2]; [6],173 ± 3 bpm
same,LVEDP (LV end-diastolic pressure),[2]; [6],10.9 ± 1.3 mmHg
same,LVSP (maximal systolic LV-pressure),[2]; [6],108 ± 2 mmHg
same,+dP/dt (contractilility),[2]; [7],6018 ±308 mmHg/s
same,-dP/dt (relaxation),[2]; [7],4646 ± 295 mmHg/s
same,HF (heart frequence),[2]; [7],168 ± 6 bpm
same,LVEDP (LV end-diastolic pressure),[2]; [7],9.7 ± 0.9 mmHg
same,LVSP (maximal systolic LV-pressure),[2]; [7],104 ± 4 mmHg
same,IVS (thickness of the inter-ventricular septum),[3]; [6],1.7 ±0.1 mm
same,LVA (total LV-area),[3]; [6],61.9 ±5.2 mm2
same,LVCA (LV-cavity area),[3]; [6],26.8 ±1.0 mm2
same,LVWA (LV wall area),[3]; [6],35.0 ±4.5 mm2
same,PW (posterior wall thickness),[3]; [6],1.5 ±0.1 mm
same,IVS (thickness of the inter-ventricular septum),[3]; [7],1.8 ±0.1 mm
same,LVA (total LV-area),[3]; [7],58.4 ±0.7 mm2
same,LVCA (LV-cavity area),[3]; [7],22.6 ±0.2 mm2
same,LVCA / LVA %,[3]; [7],38.7 ±0.5%
same,LVWA (LV wall area),[3]; [7],35.8 ±0.5 mm2
same,PW (posterior wall thickness),[3]; [7],1.8 ±0.1 mm
same,"effect on anti-β1EC2-titers, in words",anti-β1EC2-antibodies,no effect
same,"treatment-related organ pathologies / organ-toxicity, in words",[4],Neither treatment strategy caused detectable organ-specific toxicity
same,"cardiac β1-AR density (downregulation), in words",cardiac β1-ARs,small increase
same,"cardiomyopathic phenotype, in words",[5],only stopped further disease-progression
